Test results published in US10501435B2, “Substituted quinazoline compounds and uses thereof for modulating glucocerebrosidase activity” (Northwestern University, priority 2015, dated 2019).
“Also recorded” adds a separate entry of the source.

Tests used:
acid α-glucosidase (GAA) = acid α-glucosidase (GAA) (Homo sapiens (Human), UniProt P10253); experiment: Enzyme selectivity assay, acid α-glucosidase; assay type: biochemical; details: compound treatments up to 100 μM, pH 4.8
Excerpt: (§1) 4-Methylumbelliferyl β-D-glucopyranoside (4MU-β-Glc), 4-methylumbelliferyl α-D-glucopyranoside, 4-methylumbelliferyl α-D-galactopyranoside, and buffer components were purchased from Sigma-Aldrich (St. Louis, Mo.). The recombinant wild-type GCase enzyme velaglucerase alfa (Vpriv®, Shire Human Genetic Therapies, Inc.), acid α-glucosidase enzyme alglucosidase alfa (Lumizyme®, Genzyme Corporation), α-galactosidase A enzyme agalsidase beta (Fabrazyme®, Genzyme Corporation) were used in activity assays. The GCase activity assay buffer was composed of 50 mM citric acid, 176 mM K2HPO4, and 0.01% Tween-20 at pH5.0, pH 5.9 and pH7.0. A solution of 1 M sodium hydroxide and 1 M glycine (pH 10) was used as the stop solution for all three enzyme activity assays.
(§2) Enzyme Selectivity Assays. The acid α-glucosidase and α-galactosidase A enzyme activity assay methods were similar to the GCase enzyme activity assay above with slight modifications. The buffer for the two enzyme assays consisted of 50 mM citric acid, 176 mM K2HPO4, and 0.01% Tween-20 at pH 4.8. The final enzyme concentrations for acid α-glucosidase and α-galactosidase A were 8 and 1 nM, respectively. The substrate concentrations for these related enzymes were at 0.16 and 0.4 mM, respectively.

α-galactosidase A (GLA) = α-galactosidase A (GLA) (Homo sapiens (Human), UniProt P06280); experiment: Enzyme selectivity assay, α-galactosidase A; assay type: biochemical; details: compound treatments up to 100 μM, pH 4.8
Sequence of α-galactosidase A (GLA) (P06280 32-429): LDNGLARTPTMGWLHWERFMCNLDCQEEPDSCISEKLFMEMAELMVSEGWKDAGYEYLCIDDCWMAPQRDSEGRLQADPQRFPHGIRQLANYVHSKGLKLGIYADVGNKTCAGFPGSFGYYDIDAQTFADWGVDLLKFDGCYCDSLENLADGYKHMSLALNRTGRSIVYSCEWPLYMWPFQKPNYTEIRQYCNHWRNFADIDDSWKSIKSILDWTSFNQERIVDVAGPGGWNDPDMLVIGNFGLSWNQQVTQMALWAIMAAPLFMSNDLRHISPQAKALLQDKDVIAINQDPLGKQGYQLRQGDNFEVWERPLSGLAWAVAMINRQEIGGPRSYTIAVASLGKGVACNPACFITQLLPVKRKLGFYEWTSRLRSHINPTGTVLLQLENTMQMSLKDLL
Excerpt: as §1, §2

wild-type GCase [1] = target: T1, wild-type GCase (Homo sapiens (Human), UniProt P04062); experiment: Fluorescent thermal shift assay; assay type: binding; details: pH 5.0, 0.5 to 200 μM
T1 sequence (P04062 40-536): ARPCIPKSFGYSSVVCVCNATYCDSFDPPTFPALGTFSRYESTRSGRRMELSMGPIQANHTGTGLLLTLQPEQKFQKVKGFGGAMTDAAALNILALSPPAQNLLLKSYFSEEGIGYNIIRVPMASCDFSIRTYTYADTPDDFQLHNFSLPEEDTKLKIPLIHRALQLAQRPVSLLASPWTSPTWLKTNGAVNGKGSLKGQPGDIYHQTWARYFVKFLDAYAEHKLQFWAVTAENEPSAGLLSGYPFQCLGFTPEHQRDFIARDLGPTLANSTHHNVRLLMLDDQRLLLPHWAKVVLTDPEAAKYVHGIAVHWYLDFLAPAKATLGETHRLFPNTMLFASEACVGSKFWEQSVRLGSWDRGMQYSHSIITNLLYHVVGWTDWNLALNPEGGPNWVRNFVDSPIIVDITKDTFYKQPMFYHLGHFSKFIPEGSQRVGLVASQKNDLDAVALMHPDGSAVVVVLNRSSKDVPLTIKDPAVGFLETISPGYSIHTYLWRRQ
Excerpt: Compounds shown to act as pharmacological chaperones for GCase (or other lysosomal enzymes) also stabilize the enzyme against thermal denaturation. A fluorescent thermal shift assay was developed to evaluate the binding affinity of ligands with protein^30. […] The maximum thermal shift of these compounds corresponded to their inhibitory activity at pH 5.0.
Fluorescence Thermal Shift Analysis^31. A robotic pipeline in the High Throughput Analysis Laboratory (HTAL) was used for protein ligand screening by fluorescence thermal shift (FTS) analysis. The pipeline used a Mosquito robot (TTP Labtech) for protein dispensing and an Echo 550 (Labcyte) to add compounds. Thermal scanning coupled with fluorescence detection was performed on a real-time PCR machine CFX384 (Bio-Rad Laboratories). The assay was run in 384-well PCR plates, using 10 μL citric acid/K2HPO4 buffer (50 mM citric acid, 150 mM K2HPO4, pH 5.0) per well. The assay concentration for protein was 1 μM and that for Sypro Orange (Invitrogen) was 5×. Protein was premixed with Sypro Orange and dispensed to a plate first, and compounds were added. Final concentrations of compounds ranged from 0.5 to 200 μM. Then the plate was sealed with an optical seal, shaken, and centrifuged. The thermal scan was from 10 to 95° C. with a temperature ramp rate of 1.5° C./min. The fluorescence was recorded every 10 sec. Data analysis and report generation were performed using the in-house software excelFTS.

wild-type GCase [2] = target: T1, wild-type GCase; experiment: GCase enzyme activity assay (4MU-β-Glc substrate, no taurocholate); assay type: biochemical; details: for change of inhibitory activity at pH 5.0 and pH 7.0 compared to pH 5.9: both pH conditions
Procedure: In previous studies, high concentrations of taurocholate (4-10 mM) were used to improve the signal in GCase enzyme activity assays^16,27,28. […] Here we describe our modifications of the substituents on the quinazoline ring.
as §1, with “The GCase activity assay buffer was composed of 50 mM citric acid, 176 mM K2HPO4, and 0.01% Tween-20 at pH5.0, pH 5.9 and pH7.0.” left out
GCase Enzyme Activity Assay. The compounds in DMSO solution (0.5 μL/well) were transferred to a black 96-well plate (the final titration started from 100 μM, a 12 or 24-point 2-fold dilution series). […] After 5 min of incubation at room temperature, the enzyme reaction was initiated by the addition of blue substrate (4MU-β-Glc) (33 μL/well). The final concentration of the blue substrate was 1.5 mM. The blue substrate reaction was terminated by the addition of 33 μL/well stop solution (1 M NaOH and 1 M glycine mixture, pH 10) after 30 min of incubation at 37° C. […] The selected compounds were further assayed under pH 5.0 and pH 7.0 to evaluate their selectivity under various pH conditions.

N370S mutant GCase [3] = target: T2, N370S mutant GCase (Homo sapiens (Human), UniProt P04062, N370S); experiment: GCase protein levels by Western blot in patient N370S fibroblasts; assay type: cell-based; details: 3-day treatment, 0.2 μM and 2 μM
T2 sequence (P04062 40-536 N409S): as the sequence (P04062 40-536) above, with N370S counted along it
Procedure: (§3) N370S Cell Culture and Compound Treatment. The N370S fibroblast cell line was obtained from Coriell, GM00372, cultured in DMEM medium (Life Tech) including 1% v/v L-glutamine 200 mM (Life Tech), 1% v/v pen strep (Life Tech), 10% FBS (Life Tech) at 37° C. and 5% CO2 and treated with different compounds at 0.2 μM and 2 μM. After a 3-day treatment, cells were washed with inhibitor free media 3 times and fed with inhibitor free media for 1 day, followed by 1% Triton X-100 lysis buffer to lyse cells. Protein concentrations were measured with a Bradford kit (Thermo), and the GCase activity was determined at pH 5.5.
Western Blot. Proteins were denatured in 20% SDS sample buffer at 100° C. for 10 min; 10% Bis-Tris gel (Life Tech) was used for gels; Trans-Blot Turbo PVDF kit (Bio-Rad) was used for membrane transfer, and Chemidoc MP system (Bio-Rad) was used to analyze the blots.

N370S mutant GCase [4] = target: T2, N370S mutant GCase; experiment: GCase activity assay in patient N370S fibroblasts; assay type: cell-based; details: 3-day treatment, activity determined at pH 5.5
Procedure: as §3

GCase = GCase (Homo sapiens (Human), UniProt P04062); experiment: Enzyme kinetic assay (Lineweaver-Burk, resorufin β-D-glucopyranoside); assay type: biochemical; details: substrate 30-150 μM, increasing inhibitor concentrations
Sequence of GCase (P04062 40-536): as the sequence (P04062 40-536) above
Procedure: We further tested compounds 4 and 11g by measuring GCase activity at various substrate concentrations (30-150 μM) and in the absence or presence of increasing concentrations of GCase inhibitors.
Enzyme Kinetic Assay. The substrate resorufin β-D-glucopyranoside was diluted to five concentrations, ranging from 30 to 150 μM. Seven concentrations of inhibitors (between 0.5- and 5-fold of IC50 value) and a DMSO control were added to the enzyme solution. The final enzyme concentration was 10 nM to give a linear reaction over 10 min. Enzyme kinetics were measured by the addition of 66 μL of substrate to a 96-well assay plate, followed by 33 μL of enzyme solution (with or without inhibitor) using a dispense module on a Biotek Synergy H1 multi-mode plate reader. The increase in product fluorescence was measured at 1 min intervals for 10 min in the plate reader. The rate of product formation was calculated by converting the fluorescence units to nanomoles of product per minute using a standard curve of the free fluorophore, resorufin.

Glucocerebrosidase = Glucocerebrosidase (Homo sapiens (Human), UniProt P04062); experiment: Glucocerebrosidase activity assay with blue substrate (4MU-Glc); assay type: biochemical; details: cells marked activator
Sequence of Glucocerebrosidase (P04062 40-536): as above
Procedure: The compounds in DMSO solution 0.5 μL/well were transferred to a black 96-well plate. The final titration was 24 nM to 50 μM, 12 concentrations, 2 times dilution. […] After 5 min of incubation at room temperature, the enzyme reaction was initiated by the addition of 33 μL/well blue substrate. Final concentrations of the blue substrate (4MU-Glc) was 1.5 mM. The blue substrate reaction was terminated by the addition of 33 μL/well stop solution (1 M NaOH and 1 M glycine mixture, pH 10) after 30 min of incubation at 37° C. The fluorescence was then measured in the Biotek Synergy H1 multi-mode plate reader with Ex=365 nm and Em=440 nm.
Additional compounds were prepared and tested according to the procedures provided in the examples above.
Additional substituted quinazoline compounds were prepared and tested according to the procedures provided in the examples above.

| Compound | acid α-glucosidase (GAA) activity (acid α-glucosidase (GAA)) | α-galactosidase A (GLA) activity (α-galactosidase A (GLA)) | concentration of GCase (protein level, Western blot) (N370S mutant GCase [3]) | stabilization of wild-type GCase / change of GCase melting point (wild-type GCase [1]) | other results |
| --- | --- | --- | --- | --- | --- |
| c1cncc(-c2nc(NC3CCc4ccccc4C3)c3ccccc3n2)c1 (single isomer, unassigned) [Compound 9a] | not significantly changed | not significantly changed | – | stabilize wild-type GCase in a dose-dependent manner; also recorded: increased the GCase melting point in a dose-dependent manner | – |
| c1ccc(Nc2nc(-c3cccnc3)nc3ccccc23)cc1 [Compound 8a] | – | – | – | did not change the melting points significantly | inhibitory activity against GCase (in words) (wild-type GCase [2]): lost activity |
| c1cncc(-c2nc(N[C@@H]3CCc4ccccc4C3)c3ccccc3n2)c1 [Compound 9b] | – | – | – | stabilize wild-type GCase in a dose-dependent manner; also recorded: increased the GCase melting point in a dose-dependent manner | decrease of inhibitory activity at pH 5.0 compared to pH 5.9 (wild-type GCase [2]; pH 5.0 vs pH 5.9): 3 fold |
| c1cncc(-c2nc(NC3CCCc4ccccc43)c3ccccc3n2)c1 (centres unmarked) [Compound 9d] | – | – | – | – | inhibitory activity against GCase (in words) (wild-type GCase [2]): low micromolar range |
| c1cncc(-c2nc(NC3CCc4ccccc43)c3ccccc3n2)c1 (centres unmarked) [Compound 9e] | – | – | – | – | inhibitory activity against GCase (in words) (wild-type GCase [2]): low micromolar range |
| c1cncc(-c2nc(NC3COc4ccccc4C3)c3ccccc3n2)c1 (centres unmarked) [Compound 9f] | – | – | – | – | IC50 (wild-type GCase [2]; Table 4, pH 5.9, mean ± SD, triplicate): 35 ± 3 nM |
| CC(COc1ccccc1)N(C)c1nc(-c2cccnc2)nc2ccccc12 (centres unmarked) [compound 139] | – | – | – | – | AC50 (Glucocerebrosidase; read-out: Activity AC50 or IC50 (μM unless nM indicated): AC50, activator): 5.62 µM |
| CN(CCOc1ccccc1)c1nc(-c2ccccn2)nc2ccccc12 [compound 143] | – | – | – | – | Activity AC50 or IC50 (μM unless nM indicated): AC50, activator (Glucocerebrosidase): Weak activator |
| CN(CCOc1ccc(C#CCCCCCCCCC(=O)ON2C(=O)CCC2=O)cc1)c1nc(-c2cccnc2)nc2ccccc12 [compound 153] | – | – | – | – | Activity AC50 or IC50 (μM unless nM indicated): AC50, activator (Glucocerebrosidase): activator |

More lines, main results first:

| acid α-glucosidase (GAA) activity (acid α-glucosidase (GAA)) | α-galactosidase A (GLA) activity (α-galactosidase A (GLA)) | concentration of GCase (protein level, Western blot) (N370S mutant GCase [3]) | Compound | stabilization of wild-type GCase / change of GCase melting point (wild-type GCase [1]) | other results |
| --- | --- | --- | --- | --- | --- |
| not significantly changed | not significantly changed | significantly increased | c1ccc(-c2nc(NC3Cc4ccccc4C3)c3ccccc3n2)cc1 [Compound 11d, N-(2,3-dihydro-1H-inden-2-yl)-2-phenylquinazolin-4-amine] | stabilize wild-type GCase in a dose-dependent manner; also recorded: increased the GCase melting point in a dose-dependent manner | – |
| not significantly changed | not significantly changed | significantly increased | c1csc(-c2nc(NC3Cc4ccccc4C3)c3ccccc3n2)c1 [Compound 11f, N-(2,3-dihydro-1H-inden-2-yl)-2-(thiophen-2-yl)quinazolin-4-amine] | stabilize wild-type GCase in a dose-dependent manner; also recorded: increased the GCase melting point in a dose-dependent manner | change of inhibitory activity at pH 5.0 and pH 7.0 compared to pH 5.9 (wild-type GCase [2]): only dropped slightly |
| not significantly changed | not significantly changed | significantly increased | c1ccc2c(c1)CC(Nc1nc(-c3ccsc3)nc3ccccc13)C2 [Compound 11g, N-(2,3-dihydro-1H-inden-2-yl)-2-(thiophen-3-yl)quinazolin-4-amine] | stabilize wild-type GCase in a dose-dependent manner; also recorded: increased the GCase melting point in a dose-dependent manner | GCase activity in patient cells (N370S mutant GCase [4]): increased GCase activity; type of inhibition (Km, Vmax) (GCase): linear mixed inhibition; change of inhibitory activity at pH 5.0 and pH 7.0 compared to pH 5.9 (wild-type GCase [2]): only dropped slightly |
| – | – | did not have an effect | OC[C@H]1CNC[C@@H](O)[C@@H]1O [IFG, Isofagomine, reference compound] | stabilize wild-type GCase in a dose-dependent manner | GCase activity in patient cells (N370S mutant GCase [4]): had no effect |
